ChEMBL document CHEMBL1158714, “Communiols E-H: new polyketide metabolites from the coprophilous fungus Podospora communis” (J Nat Prod, 2005)
Calls of active or inactive are those of the source.

Assays:
Assay type in all cases: functional, organism-based
Staphylococcus aureus = test: Antimicrobial activity against Staphylococcus aureus ATCC 29213 at 200 ug/disk
Candida albicans = test: Antimicrobial activity against Candida albicans ATCC 90029 at 200 ug/disk
Bacillus subtilis = test: Antimicrobial activity against Bacillus subtilis ATCC 6051 at 200 ug/disk

Measured: Activity

CC[C@H](O)[C@@H]1C[C@H]2CC[C@H](CO)[C@H]2O1
inactive: all assays above

CC[C@@H]1O[C@H]1C[C@H]1CC=C(CO)[C@H]1O
inactive: all assays above

CC[C@H](O)[C@@H]1C[C@H]2CC=C(CO)[C@H]2O1
inactive: all assays above

CC[C@H](O)[C@@H]1C[C@@H](C/C=C/C=O)C(=O)O1
inactive: all assays above
